Results as given in ChEMBL document CHEMBL5154746, “Antibacterial Activity of Metergoline Analogues: Revisiting the Ergot Alkaloid Scaffold for Antibiotic Discovery” (2022).
Values after ≈ are worked out from the molar mass of the structure shown.

Key:
Escherichia coli [1] = test: Antibacterial activity against wild type Escherichia coli MG1655 harboring delta tolC mutant assessed as inhibition of bacterial growth by MOPS based broth microdilution assay; assay type: functional
Salmonella typhimurium [2] = test: Antibacterial activity against wild type Salmonella typhimurium SL1344 assessed as reduction in bacterial growth by ALM based microdilution assay; assay type: functional, Salmonella enterica subsp. enterica serovar Typhimurium; conditions: Salmonella enterica
Bacillus subtilis = test: Antibacterial activity against Bacillus subtilis 168 assessed as inhibition of bacterial growth by Muller hinton broth based microdilution assay; assay type: functional
Escherichia coli [3] = test: Antibacterial activity against wild type Escherichia coli MG1655 assessed as inhibition of bacterial growth by MOPS based broth microdilution assay; assay type: functional
Staphylococcus aureus = test: Antibacterial activity against Methicillin-resistant Staphylococcus aureus USA300 assessed as inhibition of bacterial growth by Muller hinton broth based microdilution assay; assay type: functional
Salmonella typhimurium [4] = test: Antibacterial activity against Salmonella typhimurium harboring delta tolC mutant assessed as bacterial growth inhibition by Muller hinton broth based microdilution assay; assay type: functional, Salmonella enterica subsp. enterica serovar Typhimurium; conditions: Salmonella enterica
Salmonella typhimurium [5] = test: Antibacterial activity against wild type Salmonella typhimurium SL1344 assessed as reduction in bacterial growth by Muller hinton broth based microdilution assay; assay type: functional, Salmonella enterica subsp. enterica serovar Typhimurium; conditions: Salmonella enterica
Escherichia coli [6] = test: Antibacterial activity against wild type Escherichia coli MG1655 assessed as inhibition of bacterial growth by Muller hinton broth based microdilution assay; assay type: functional
Escherichia coli [7] = test: Antibacterial activity against wild type Escherichia coli MG1655 harboring delta tolC mutant assessed as inhibition of bacterial growth by Muller hinton broth based microdilution assay; assay type: functional

Row | Compound | MIC (Escherichia coli [1]) | MIC (Salmonella typhimurium [2]) | MIC (Bacillus subtilis) | MIC (Escherichia coli [3]) | MIC (Staphylococcus aureus) | MIC (Salmonella typhimurium [4]) | MIC (Salmonella typhimurium [5]) | MIC (Escherichia coli [6]) | MIC (Escherichia coli [7])
1 | CN(C)CCCNC(=O)/C=C/c1ccc(C(F)(F)F)cc1 | 128 mg/L (≈ 426 µM) | > 200 mg/L | > 200 mg/L | > 200 mg/L | > 200 mg/L | > 200 mg/L | > 200 mg/L | > 200 mg/L | 
2 | CN1C=C2C[C@@H]3[C@H](C[C@@H](CNC(=O)C4CC4c4ccccc4)CN3C)C3C=CC=C1C23 (some centres not stated) | 10.2 mg/L (≈ 24.6 µM) | 200 mg/L (≈ 481 µM) | 64 mg/L (≈ 154 µM) | > 200 mg/L | 64 mg/L (≈ 154 µM) | 64 mg/L (≈ 154 µM) | > 200 mg/L | > 200 mg/L | 64 mg/L (≈ 154 µM)
